Data reported in US20240254109A1, “SALT CONTAINING PIPERAZINE POLYCYCLIC DERIVATIVE, CRYSTAL FORM THEREOF, PREPARATION METHOD THEREFOR, AND USE THEREOF” (Shanghai Hansoh Biomedical Co., Ltd., priority 2021, published 2024).
Where a name gives a salt, the structure may show the parent alone.

Tests used:
[1] = Pressure crystal transformation test; assay type: physicochemical; settings: before and after pressure, tablet press at maximum pressure
From the text: 4.5 Pressure Crystal Transformation Test
The tablet press was adjusted to the maximum pressure. It was pressed into a tablet and then was subjected to PXRD characterization.

[2] = Salt form quantification by HPLC-ELSD; assay type: physicochemical
Method: 7. Salt Form Quantification
The number of acids binding in the salt form was quantified by HPLC-ELSD test.
An appropriate amount of NaCl was weighed, and a series of linear solutions of different concentrations with the diluent acetonitrile-water (50:50) was prepared.
The above linear solution and hydrochloride samples solution was taken to filter.
7.3 Experimental results: The content of hydrochloric acid in hydrochloride was calculated according to the external standard method, and the quantitative results of hydrochloride are shown in Table 30.

[3] = Pharmacokinetics study in rats; assay type: in vivo
From the text: 8. Pharmacokinetics Study in Rats

[4] = Crystal form stability study of hydrochloride for 30 days; assay type: physicochemical; settings: 30 days
Method: 9. Crystal Form Stability Study of Hydrochloride for 30 Days
The 30 days stability of hydrochloride of N-(trans-3-(2-(4-(2,3-dichlorophenyl)piperazin-1-yl)ethyl)cyclobutyl)oxazole-2-carboxamide under four conditions of 60° C. (closed), 40° C. & RH 75% (open), 25° C./RH 92.5% (open) and light (5000±500 Lux) was detected, which provided scientific basis for the production, packaging, storage and transportation conditions of drugs.
The diluent 80% methanol solution was added to prepare a solution containing about 0.5 mg/mL hydrochloride. The mixture was sonicated for 30 min to produce a clear solution. 1 mL of the solution was filtered and measured by HPLC. See “2.3.4” for the HPLC analysis method. The content of related substances was calculated according to the peak area normalization method, and the results are shown in Table 32 below.

[5] = Solid stability experiment of crystal form of salt; assay type: physicochemical
Method: 4. Solid Stability Experiment
The physicochemical stability of crystal form of salt of compound N-(trans-3-(2-(4-(2,3-dichlorophenyl)piperazin-1-yl)ethyl)cyclobutyl)oxazole-2-carboxamide under the conditions of light 50001×, high temperature 60° C., high humidity 92.5% RH and high temperature and high humidity 50° C. 75% RH was investigated, which provided a basis for crystal form screening and compound crystal form storage.
About 1 mg of different crystal forms of salt were taken and placed under the conditions of light 50001×, high temperature 60° C., high humidity 92.5% RH, high temperature and high humidity 50° C. 75% RH for 5 days and 10 days. The salt content was determined by HPLC and external standard method, and the change of relevant substances was calculated by chromatographic peak area normalization method.

[6] = Thermodynamic stability experiment of crystal form (pulping in solvents); assay type: physicochemical; settings: for Results (crystal form after pulping, XRPD): pulped 1 week at room temperature and 50° C.
Method: 6. Thermodynamic Stability Experiment of Crystal Form
An organic solvent with a certain solubility was selected. […] The supernatant was discarded, and the solid was dried in vacuum (−0.1 Mpa) overnight at 50° C. The XRPD of the solid was determined and compared with XRPD of raw compound salt.

[7] = Grinding crystal transformation test; assay type: physicochemical; settings: before and after grinding in a mortar for 5 min
From the text: 4.6 Grinding Crystal Transformation Test

[8] = Hygroscopicity experiment of crystal form A of hydrochloride; assay type: physicochemical
From the text: 5 Hygroscopicity Experiment

[9] = light, 60° C., 92.5% RH, 40° C. & 75% RH
[10] = High humidity, 5 Days, listed as Crystal form A of hydrochloride
[11] = High temperature and high humidity, 5 Days
[12] = High temperature and high humidity, 10 Days
[13] = Light, 5 Days, listed as Crystal form A of hydrochloride
[14] = Light, 10 Days, listed as Crystal form A of hydrochloride
[15] = light, 60° C., 92.5% RH, 50° C. 75% RH, 5 and 10 days

Structure (SMILES): O=C(N[C@H]1C[C@H](CCN2CCN(c3cccc(Cl)c3Cl)CC2)C1)c1ncco1 [crystal form A of hydrochloride, N-(trans-3-(2-(4-(2,3-dichlorophenyl)piperazin-1-yl)ethyl)cyclobutyl)oxazole-2-carboxamide]
- crystal transformation (PXRD) [1]: didn't undergo crystal transformation
- Determination of Cl-percentage content in hydrochloride ([2]; Batch 1): 7.82%
- Determination of Cl-percentage content in hydrochloride ([2]; Batch 2): 7.90%
- exposure versus dose ([3]; dose of 100 mg/kg and 30 mg/kg): dose-related
- in vivo exposure compared with crystal form B of free base ([3]; gavage): increased
- stability [4]: good stability
- crystal form change (PXRD) [4, 9]: does not undergo crystal form change
- impurities (HPLC) [4, 9]: do not increase significantly
- Maximum single impurity increase % [5, 10]: 0.06%
- Total impurity increase % [5, 10]: 0.06%
- Maximum single impurity increase % ([5]; High humidity, 10 Days): <0.02%
- Total impurity increase % ([5]; High humidity, 10 Days): <0.02%
- Maximum single impurity increase % [5, 11]: <0.02%
- Total impurity increase % [5, 11]: <0.02%
- Maximum single impurity increase % [5, 12]: <0.02%
- Total impurity increase % [5, 12]: <0.02%
- Maximum single impurity increase % ([5]; High temperature, 5 Days): <0.02%
- Total impurity increase % ([5]; High temperature, 5 Days): <0.02%
- Maximum single impurity increase % ([5]; High temperature, 10 Days): <0.02%
- Total impurity increase % ([5]; High temperature, 10 Days, listed as Crystal form A of hydrochloride): 0.03%
- Maximum single impurity increase % [5, 13]: <0.02%
- Total impurity increase % [5, 13]: <0.02%
- Maximum single impurity increase % [5, 14]: <0.02%
- Total impurity increase % [5, 14]: <0.02%
- crystal form stability [5, 15]: stable under all conditions
- impurities [5, 15]: not significantly increased
- thermodynamic stability of crystal form [6]: thermodynamically stable crystal form
- Results (crystal form after pulping, XRPD) ([6]; 1,4-Dioxane): Crystal form A
- crystal form after being pulped by different solvents ([6]; 1 week, room temperature and 50° C.): does not change
- Results (crystal form after pulping, XRPD) ([6]; 2-Butanone): Crystal form A
- Results (crystal form after pulping, XRPD) ([6]; 2-Methyl-tetrahydrofuran): Crystal form A
- Results (crystal form after pulping, XRPD) ([6]; Acetone): Crystal form A
- Results (crystal form after pulping, XRPD) ([6]; Acetonitrile): Crystal form A
- Results (crystal form after pulping, XRPD) ([6]; Dichloromethane): Crystal form A
- Results (crystal form after pulping, XRPD) ([6]; Ethanol): Crystal form A
- Results (crystal form after pulping, XRPD) ([6]; Ethyl acetate): Crystal form A
- Results (crystal form after pulping, XRPD) ([6]; Ethyl formate): Crystal form A
- Results (crystal form after pulping, XRPD) ([6]; Isopropanol): Crystal form A
- Results (crystal form after pulping, XRPD) ([6]; Methanol): Crystal form A
- Results (crystal form after pulping, XRPD) ([6]; Methyl tert-butyl ether): Crystal form A
- Results (crystal form after pulping, XRPD) ([6]; Tetrahydrofuran): Crystal form A
- Results (crystal form after pulping, XRPD) ([6]; Toluene): Crystal form A
- Results (crystal form after pulping, XRPD) ([6]; n-Heptane): Crystal form A
- crystal transformation (PXRD) [7]: didn't undergo crystal transformation
- stability in humid environments [8]: stable in humid environments
